The values below come from PubChem BioAssay (NCI).

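Where inhibition never reached the appropriate level, the endpoint shown equals the highest concentration tested. Otherwise, values were interpolated linearly from a five-concentration, 48-hour dose response in 96-well plates. TGI is the concentration that stops growth completely.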

Test systems include U251 CNS; SW-620 colon; HS 578T breast; TK-10 renal; SK-MEL-28 melanoma; OVCAR-3 ovarian; NCI-H226 lung; MALME-3M melanoma; HCT-116 colon; CAKI-1 renal; NCI-H460 lung; ACHN renal; MDA-MB-231 breast; NCI-H522 lung; T-47D breast; IGROV1 ovarian; HOP-92 NSCLC; SF-539 CNS; SF-268 CNS.
Common to all, as to test: inhibition of tumour cell growth, NCI panel, 48 h

In the case of `NC(=S)NNCC(=O)CC(O)(C(F)(F)F)C(F)(F)Cl` (stereo unspecified), the TGI in the experiment with U251 CNS, with SW-620 colon, with HS 578T breast, in the experiment on TK-10 renal, in the experiment on SK-MEL-28 melanoma and in the experiment with OVCAR-3 ovarian was > 100 µM throughout. Further, the TGI with NCI-H226 lung, in the experiment on MALME-3M melanoma, with HCT-116 colon, in the experiment on CAKI-1 renal, in the experiment with NCI-H460 lung and in the experiment on ACHN renal was > 100 µM in each case. Also, the TGI in the experiment with MDA-MB-231 breast, with NCI-H522 lung, in the experiment with T-47D breast, in the experiment with IGROV1 ovarian, in the experiment with HOP-92 NSCLC and with SF-539 CNS was > 100 µM in each case.

Regarding `O=C1NC(N2CCCC(CO)C2)=N/C1=C\c1cccs1` (stereo unspecified), the TGI with U251 CNS, with SW-620 colon, with SF-268 CNS, with HS 578T breast, in the experiment on TK-10 renal and in the experiment on SK-MEL-28 melanoma was > 100 µM each time. The TGI in the experiment with OVCAR-3 ovarian, with NCI-H226 lung, with MALME-3M melanoma, with HCT-116 colon, in the experiment on CAKI-1 renal and in the experiment with ACHN renal was > 100 µM throughout. Besides, the TGI in the experiment with MDA-MB-231 breast, in the experiment on NCI-H522 lung, with T-47D breast, in the experiment with IGROV1 ovarian, in the experiment with HOP-92 NSCLC and with SF-539 CNS was > 100 µM throughout.

For `CNC(=O)[C@H](Cc1ccccc1)NC(=O)N(CCC#N)CCN(C(=O)N[C@@H](Cc1ccccc1)C(=O)OC)c1ccccc1`, the TGI in the experiment with U251 CNS, in the experiment on SW-620 colon, with SF-268 CNS, with HS 578T breast, with TK-10 renal and in the experiment with SK-MEL-28 melanoma was > 100 µM each time. For the same compound, the TGI in the experiment with OVCAR-3 ovarian, in the experiment on NCI-H226 lung, in the experiment on MALME-3M melanoma, in the experiment with HCT-116 colon, with CAKI-1 renal and in the experiment with NCI-H460 lung was > 100 µM each time. Also, the TGI in the experiment with ACHN renal, in the experiment on MDA-MB-231 breast, in the experiment with NCI-H522 lung, in the experiment on T-47D breast, in the experiment with HOP-92 NSCLC and with SF-539 CNS was > 100 µM each time.

Regarding `CC(=O)OC1CCn2c1nc1cc([N+](=O)[O-])c(C)cc12` (stereo unspecified), the TGI in the experiment with U251 CNS, with SW-620 colon, with SF-268 CNS, in the experiment with HS 578T breast, with SK-MEL-28 melanoma and in the experiment with OVCAR-3 ovarian was > 100 µM each time. The TGI in the experiment with NCI-H226 lung, in the experiment with MALME-3M melanoma, in the experiment on HCT-116 colon, with CAKI-1 renal, in the experiment on NCI-H460 lung and in the experiment on ACHN renal was > 100 µM throughout. In addition, the TGI in the experiment with MDA-MB-231 breast, with NCI-H522 lung, in the experiment with T-47D breast, in the experiment on IGROV1 ovarian, in the experiment with HOP-92 NSCLC and in the experiment with SF-539 CNS was > 100 µM each time.

For the compound `CC1CC(=O)N(N(C)C)C2(C#N)C(=O)N=C(N)C12C#N` (stereo unspecified), the TGI with U251 CNS, in the experiment on SW-620 colon, with SF-268 CNS, with HS 578T breast, with TK-10 renal and in the experiment on MALME-3M melanoma was > 100 µM in each case. Besides, the TGI was > 100 µM with HCT-116 colon; 48.3 µM in the experiment on CAKI-1 renal; > 100 µM in the experiment with ACHN renal; > 100 µM in the experiment on MDA-MB-231 breast; > 100 µM with NCI-H522 lung; > 100 µM in the experiment on T-47D breast. Moreover, the TGI in the experiment on IGROV1 ovarian, in the experiment on HOP-92 NSCLC and in the experiment with SF-539 CNS was > 100 µM in each case.

In the case of `c1ccc(C(Oc2noc3ccccc23)c2ccccc2)cc1`, the TGI in the experiment with U251 CNS, in the experiment with SW-620 colon, with SF-268 CNS, in the experiment on HS 578T breast, in the experiment on TK-10 renal and with SK-MEL-28 melanoma was > 100 µM throughout. Moreover, the TGI in the experiment on OVCAR-3 ovarian, with NCI-H226 lung, in the experiment on MALME-3M melanoma, in the experiment on HCT-116 colon, with CAKI-1 renal and in the experiment with NCI-H460 lung was > 100 µM throughout. For the same compound, the TGI was > 100 µM in the experiment with ACHN renal; > 100 µM in the experiment on MDA-MB-231 breast; > 100 µM in the experiment with NCI-H522 lung; 23.1 µM with T-47D breast; > 100 µM in the experiment on IGROV1 ovarian; > 100 µM with HOP-92 NSCLC.

`COC(=O)[C@@H]1c2c(oc3cc(CO)cc(O)c3c2=O)C=C[C@H]1O`: the TGI was 22.5 µM in the experiment with U251 CNS; 10.4 µM in the experiment with SW-620 colon; 21.7 µM with SF-268 CNS; 55.8 µM in the experiment on HS 578T breast; 6.8 µM in the experiment on TK-10 renal; 18.1 µM in the experiment on SK-MEL-28 melanoma. Moreover, the TGI in the experiment on OVCAR-3 ovarian amounted to 20.7 µM; in the experiment on NCI-H226 lung it was 51.5 µM; in the experiment with MALME-3M melanoma, 4.91 µM; in the experiment on HCT-116 colon, 5.98 µM; in the experiment on CAKI-1 renal, 22.4 µM; in the experiment with NCI-H460 lung, 34 µM. Also, the TGI in the experiment with MDA-MB-231 breast amounted to 27.5 µM; in the experiment with NCI-H522 lung, 3.64 µM; in the experiment on T-47D breast, 9.4 µM; in the experiment on IGROV1 ovarian, 26.2 µM; with HOP-92 NSCLC it was 22.4 µM; with SF-539 CNS, 9.41 µM.

Regarding `NCCCN(CCCCN(CCCN)CCCc1ccccc1)CCCc1ccccc1`, the TGI turned out to be 4.19 µM with U251 CNS; 10.6 µM in the experiment with SW-620 colon; 8.32 µM in the experiment on SF-268 CNS; 4.66 µM with HS 578T breast; 25.9 µM in the experiment with TK-10 renal; 2.98 µM in the experiment with SK-MEL-28 melanoma. The TGI came to 3.34 µM in the experiment on OVCAR-3 ovarian; 38.8 µM in the experiment with NCI-H226 lung; 3.02 µM in the experiment with HCT-116 colon; 4.94 µM with CAKI-1 renal; 2.72 µM with NCI-H460 lung; 9.24 µM with ACHN renal. The TGI with MDA-MB-231 breast was determined as 4.39 µM; in the experiment with NCI-H522 lung it was 7.17 µM; in the experiment on T-47D breast it was 23.5 µM; in the experiment with IGROV1 ovarian it was 8.88 µM; in the experiment on HOP-92 NSCLC it was 24.1 µM; with SF-539 CNS it was 3.55 µM.
